Legend:
[1] = test system: rabbit ADK; parameters: method as in Miller et al., 1979a; details: ref Miller et al., 1979a; cited from earlier work
[2] = molecular target: ZmADK3 E225A variant (Zea mays, UniProt A0A1D6E5Z5, E225A); assay: Binding affinity by MST
Procedure: (§1) All ZmADK3 mutants were cloned by 30 cycle PCRs using tail-to-tail oriented phosphorylated primers, with the mutation being located at the 5′ end of one of the primers. The following mutants were cloned using the primers given in Supplementary Table S1: D19A, R132A, N222A, E225A, N295A, and D299A. The products were treated with DpnI restriction enzyme, gel purified, and ligated using T4 DNA ligase (www.thermofisher.com). Clones were transformed into T7 express I^qE. coli competent cells.
(§2) The microscale thermophoresis (MST) method was used to determine the binding affinity of various ribosides for ZmADK2 and PpADK1. Proteins were fluorescently labeled with RED-tris-NTA dye (www.nanotemper-technologies.com) using a 1:1 dye/protein molar ratio. The labeled protein was adjusted to 100–300 nM in 50 mM HEPES buffer pH 7.5, 1 mM MgCl2, and 0.2% Tween. Measurements were performed in premium capillaries on a Monolith NT.115 instrument at 30 °C with 5 s/30 s/5 s laser off/on/off times, respectively, with continuous sample fluorescence recording. Thermal stability was measured by nano-differential scanning fluorimetry on a Prometheus NT.48 instrument (www.nanotemper-technologies.com) in various buffers covering a pH (7.0–9.5) and temperature range (25–95 °C), with a heating rate of 1 °C min^–1, and using NT melting control software. Protein unfolding was measured by detecting the temperature-induced change in tryptophan fluorescence intensity at emission wavelengths of 330±5 nm and 350±5 nm. The melting temperature (Tm) was deduced from the maximum of the first derivative of the fluorescence ratios F350/F330.

[3] = molecular target: ZmADK3 N222A variant (Zea mays, UniProt A0A1D6E5Z5, N222A); assay: Binding affinity by MST
Procedure: as §1, §2

[4] = molecular target: ZmADK3 N295A variant (Zea mays, UniProt A0A1D6E5Z5, N295A); assay: Binding affinity by MST
Procedure: as §1, §2

[5] = molecular target: ZmADK3 R132A variant (Zea mays, UniProt A0A1D6E5Z5, R132A); assay: Binding affinity by MST
Procedure: as §1, §2

[6] = molecular target: ZmADK3 D299A variant (Zea mays, UniProt A0A1D6E5Z5, D299A); assay: Binding affinity by MST
Procedure: as §1, §2

[7] = molecular target: ZmADK3 D19A variant (Zea mays, UniProt A0A1D6E5Z5, D19A); assay: Binding affinity by MST
Procedure: as §1, §2

[8] = test system: both moss enzymes; assay: ADK activity, coupled reaction (summary for moss enzymes); assay type: biochemical, Physcomitrella patens; details: saturating 100 µM concentration
Procedure: (§3) Substrate analogs were purchased from Sigma-Aldrich (www.sigmaaldrich.com). The ADK activity was measured spectrophotometrically on an Agilent 8453 UV-Vis spectrophotometer (www.agilent.com) at 30 °C using a coupled reaction with pyruvate kinase (PK) and lactate dehydrogenase (LDH) (www.sigmaaldrich.com) ([Blondin et al., 1994]). In this assay, PK converts ADP produced by ADK and phosphoenolpyruvate (PEP) to pyruvate. Subsequently, LDH then converts pyruvate to lactate using the coenzyme NADH, with the conversion monitored at 340 nm. The reaction was conducted in 50 mM Tris–HCl buffer at pH 7.5, containing 50 mM KCl, 6 mM MgCl2, 300 µM PEP, 200 µM NADH, 10 mM ATP, 2 U of PK, and 2.5 U of LDH, using various nucleoside substrates. Kinetic constants were determined using GraphPad Prism 8.0 software (www.graphpad.com). Each measurement was performed six times using repetitive purified enzymes. The activities of all five ADKs were also measured by HPLC ([Moffatt et al., 1991]). The reaction mixture comprised 50 mM Tris–HCl pH 7.5, 5 mM MgCl2, 0.5 mM DTT, 30 mM NaF, 5 mM ATP, 40 µM substrate, and 2–150 ng of purified ADK, depending on the isoform. The reaction was incubated at 30 °C for up to 1 h. […]

[9] = molecular target: ZmADK2 (Zea mays, UniProt B4FFH8, T4S); assay: Binding affinity by microscale thermophoresis (MST); details: MST
Procedure: as §2

[10] = test system: all five ADKs; assay: ADK kinetics, coupled reaction (summary for all isoforms); assay type: biochemical, Zea mays, Physcomitrella patens; details: range over all five ADKs
Procedure: as §3

[11] = molecular target: ZmADK2 and PpADK1; assay: Binding affinity by MST (summary for both enzymes); parameters: species or system Zea mays, Physcomitrella patens; details: range over ZmADK2 and PpADK1
Procedure: as §2

[12] = molecular target: T1, PpADK1 (Physcomitrium patens, UniProt O49923); assay: ADK activity, coupled reaction with PK and LDH; assay type: biochemical, Physcomitrella patens; details: 100 µM substrate, 10 mM ATP, pH 7.5, 30 °C
T1 construct: made in house; host or cells: E. coli T7 Express Iq
Procedure: Substrate analogs were purchased from Sigma-Aldrich (www.sigmaaldrich.com). The ADK activity was measured spectrophotometrically on an Agilent 8453 UV-Vis spectrophotometer (www.agilent.com) at 30 °C using a coupled reaction with pyruvate kinase (PK) and lactate dehydrogenase (LDH) (www.sigmaaldrich.com) ([Blondin et al., 1994]). In this assay, PK converts ADP produced by ADK and phosphoenolpyruvate (PEP) to pyruvate. Subsequently, LDH then converts pyruvate to lactate using the coenzyme NADH, with the conversion monitored at 340 nm. The reaction was conducted in 50 mM Tris–HCl buffer at pH 7.5, containing 50 mM KCl, 6 mM MgCl2, 300 µM PEP, 200 µM NADH, 10 mM ATP, 2 U of PK, and 2.5 U of LDH, using various nucleoside substrates. Kinetic constants were determined using GraphPad Prism 8.0 software (www.graphpad.com). Each measurement was performed six times using repetitive purified enzymes. The activities of all five ADKs were also measured by HPLC ([Moffatt et al., 1991]). The reaction mixture comprised 50 mM Tris–HCl pH 7.5, 5 mM MgCl2, 0.5 mM DTT, 30 mM NaF, 5 mM ATP, 40 µM substrate, and 2–150 ng of purified ADK, depending on the isoform. The reaction was incubated at 30 °C for up to 1 h. […] Similarly, the conversion of cytokinin ribosides to monophosphates was followed on a LiChrosphere 60 RP-Select B (5 µm) LiChroCART column 125-4 column equilibrated with 10 mM triethylamine at pH 5.4 plus 10% methanol, and stepwise eluted with 100% methanol.

ZmADK2, sequence (B4FFH8 1-342 T4S): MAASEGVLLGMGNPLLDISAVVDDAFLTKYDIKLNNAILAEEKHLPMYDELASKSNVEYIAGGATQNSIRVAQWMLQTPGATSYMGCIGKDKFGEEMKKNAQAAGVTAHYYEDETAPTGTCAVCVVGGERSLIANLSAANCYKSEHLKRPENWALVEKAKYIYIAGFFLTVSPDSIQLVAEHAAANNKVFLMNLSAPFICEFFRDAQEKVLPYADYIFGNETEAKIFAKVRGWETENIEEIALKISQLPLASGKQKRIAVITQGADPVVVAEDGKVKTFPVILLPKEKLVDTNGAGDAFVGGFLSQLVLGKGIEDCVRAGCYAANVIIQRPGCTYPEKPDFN
ZmADK3 D299A variant, sequence (A0A1D6E5Z5 entry or part of it D299A): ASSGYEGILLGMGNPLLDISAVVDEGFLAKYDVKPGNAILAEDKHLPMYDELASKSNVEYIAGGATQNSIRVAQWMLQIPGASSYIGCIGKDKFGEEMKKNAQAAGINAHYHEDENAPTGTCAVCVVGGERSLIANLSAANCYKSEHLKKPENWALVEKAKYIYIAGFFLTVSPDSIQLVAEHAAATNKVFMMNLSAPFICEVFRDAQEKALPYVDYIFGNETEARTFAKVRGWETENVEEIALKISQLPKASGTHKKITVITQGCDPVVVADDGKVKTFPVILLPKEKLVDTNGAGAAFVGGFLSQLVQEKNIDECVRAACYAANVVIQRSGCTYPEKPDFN
ZmADK3 R132A variant, sequence (A0A1D6E5Z5 entry or part of it R132A): as the sequence (A0A1D6E5Z5 entry or part of it D299A) above, with R131A, A298D counted along it
ZmADK3 N295A variant, sequence (A0A1D6E5Z5 entry or part of it N295A): as the sequence (A0A1D6E5Z5 entry or part of it D299A) above, with N294A, A298D counted along it
ZmADK3 N222A variant, sequence (A0A1D6E5Z5 entry or part of it N222A): as the sequence (A0A1D6E5Z5 entry or part of it D299A) above, with N221A, A298D counted along it
ZmADK3 D19A variant, sequence (A0A1D6E5Z5 entry or part of it D19A): as the sequence (A0A1D6E5Z5 entry or part of it D299A) above, with D18A, A298D counted along it
T1 sequence (O49923 whole entry): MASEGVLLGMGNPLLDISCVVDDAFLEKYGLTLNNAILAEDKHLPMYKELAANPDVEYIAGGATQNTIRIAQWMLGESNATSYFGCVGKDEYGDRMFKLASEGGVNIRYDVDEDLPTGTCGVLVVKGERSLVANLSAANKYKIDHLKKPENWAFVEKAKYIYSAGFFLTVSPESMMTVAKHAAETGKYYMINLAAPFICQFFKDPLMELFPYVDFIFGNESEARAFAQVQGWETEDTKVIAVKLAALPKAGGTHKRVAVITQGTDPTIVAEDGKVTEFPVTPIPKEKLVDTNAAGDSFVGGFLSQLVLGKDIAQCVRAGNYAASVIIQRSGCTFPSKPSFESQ
ZmADK3 E225A variant, sequence (A0A1D6E5Z5 entry or part of it E225A): as the sequence (A0A1D6E5Z5 entry or part of it D299A) above, with E224A, A298D counted along it

## Nc1ncnc2c1ncn2[C@@H]1O[C@H](CO)[C@@H](O)[C@H]1O [Ado, adenosine]
[1]
  Km: 0.4 µM
[2]
  Kd: 0.32 ± 0.09 µM
[3]
  Kd: 0.3 ± 0.13 µM
[4]
  Kd: 274 ± 10 µM
[5]
  Kd: 0.27 ± 0.04 µM
[6]
  Kd: 10.3 ± 4.1 µM
[6]; D299A variant of ZmADK3
  lower affinity for Ado than the WT: ~ 37 times
[7]
  Kd: 989 ± 161 µM
[8]
  activity: 4–5 nkat mg^–1
[9]; KD, 50 mM HEPES pH 7.5, 1 mM MgCl2, first or only binding event
  Kd: 0.4 ± 0.14 µM
[9]; second KD value, KD(2), second binding event (ATP site)
  Kd: ~1500 µM
[9]; second KD value, second binding event (ATP site)
  Kd: 1480 ± 230 µM
[10]
  Km: 0.5 to 0.7 µM
[11]
  Kd: 0.4 to 0.7 µM
[12]
  Specific activity: 5.09±0.26 nmol s^–1 mg^–1

Reference: PMC12369479 (Journal of Experimental Botany, 2025)
